Data on two compounds can be found in US20110263693A1, “CELASTROL, GEDUNIN, AND DERIVATIVES THEREOF AS HSP90 INHIBITORS” (DANA-FARBER CANCER INSTITUTE, INC., priority 2006, published 2011).

One assay concerns AR. In words: Western blot of AR protein level. The class given is cell-based. The following applies: for concentration at and above which AR levels are decreased / concentration giving almost complete ablation of AR levels: LNCaP cells, 24 hr. The protocol: We first asked whether celastrol and gedunin decrease the levels of AR itself. […] Celastrol decreased AR levels in LNCaP cells at 0.5 μM and above, while gedunin decreases their levels at 10 μM and above. […] These concentration-dependent effects on AR are consistent with the observed inhibitory effects on AR-mediated signaling.
Background: Immunoblotting shows a protein as a band on a membrane.

The subject of assay [1] is androgen signaling signature in LNCaP cells. In words: Synergy with HSP90 inhibitors on the androgen signaling signature (isobologram). Type of assay: cell-based. The following applies: 24 hr, isobologram analysis. From the text: (§1) If celastrol and gedunin act on HSP90 function via a distinct mechanism from HSP90 ATP-binding site inhibition (Bagatell et al., 2005), they might act synergistically with existing HSP90 inhibitors. We therefore tested the combinatorial effects of these compounds with HSP90 inhibitors on HSP90 client signaling and viability. […] Celastrol and gedunin therefore act synergistically with existing modes of HSP90 ATP-binding site inhibition to inhibit HSP90 client signaling and viability in a cellular context, consistent with their inhibition of HSP90 via a distinct mechanism.
(§2) Adherent cell growth was measured by luminescent assay of ATP level (CellTiterGlo, Promega). LNCaP cells were grown in charcoal-stripped media for 2 days prior to simultaneous treatment with 1 nM R1881 and the relevant compound. Synergy was assessed by analyzing the IC50 of one drug over a range of concentrations of the other drug and vice versa. The resulting concentration pairs were visualized by isobologram (Gessner, 1995). Anchorage independence was measured by soft agar assay (Hahn et al., 1999). Compounds were added to both agar layers. Colonies were scored after 3 weeks.

The test system is the same in assay [2]. The experiment in a line: GE-HTS androgen signaling signature assay / screen. The following applies: LNCaP; for effect on the GE-HTS androgen signaling signature outside the screen: with and without 12 hours androgen pretreatment.
The test system of a further assay is EGFR. In words: Western blot of HSP90 client EGFR level. The following applies: 24 hr, several cell lines, concentration-dependent. Type of assay: cell-based, human. The protocol:
(§3) To more broadly establish the effects of celastrol and gedunin on the HSP90 pathway, we tested whether these compounds decrease the protein levels of other HSP90 clients.
(§4) Celastrol (Calbiochem) and gedunin (Gaia Chemicals) were solubilized in DMSO. LNCaP.FGC cells (ATCC) were grown in RPMI 1640 (ATCC) with 10% FBS. Ba/F3 cells stably expressing human FLT3, EGFR, and BCR-ABL1 were grown in RPMI 1640, 10% FBS, and 2 ng/ml IL-3. SKBr3 cells were grown in a 1:1 DME:F12 plus 10% FBS.

Assay [3] addresses T1, HSP90α (Homo sapiens, UniProt P07900). In words: HSP90 ATP-binding assay (ATP-polyacrylamide pulldown from lysates of treated cells). Type of assay: cell-based. Details: endogenous in cells; host or cells: LNCaP and K562. The following applies: LNCaP and K562 cells treated 24 hr. The protocol: Given their inhibition of HSP90 clients, we next asked whether celastrol and gedunin affect HSP90 activity itself. To assess the effects on HSP90 activity within a cellular context, we treated LNCaP and K562 cells with celastrol or gedunin for 24 hr and subsequently tested the cellular HSP90's ATP-binding activity. ATP-binding activity was assayed by ATP-polyacrylamide pulldown of HSP90 from cell lysates, followed by western blot-based quantification (Bali et al., 2005). This assay identifies HSP90 inhibition, both direct and indirect, that alters HSP90 ATP-binding activity in cell lines (Bali et al., 2005, Soti et al., 2002). […] The decrease in ATP binding by HSP90 cannot be accounted for by changes in HSP90 level (FIG. 7E). Celastrol and gedunin therefore inhibit HSP90 activity itself in a cellular context, either directly or indirectly.
The ATP-binding assay was similar to that in previous reports (Bali et al., 2005, Soti et al., 2002). LNCaP and K562 cells were treated with celastrol and gedunin for 24 hr and then lysed in TNESV buffer (50 mM Tris, 2 mM EDTA, […], 1 mM activated sodium orthovanadate, 25 mM NaF, 1% Triton X-100 [pH 7.5]) for 30 min at 4° C. Lysates were spun for 30 min at 12,000 rpm at 4° C. […]

The next assay concerns FLT3. The experiment in a line: Western blot of HSP90 client FLT3 level. Type of assay: cell-based, human. The following applies: for protein level of FLT3: 24 hr, several cell lines, concentration-dependent. As to the method:
as §3, §4

Another assay has as its system HSP90. The experiment in a line: HSP90 conformational change assay (bis-ANS). The following applies: purified HSP90 200 nM, bis-ANS 50 μM. Type of assay: binding. As to the method: The final volume in each well was 100 μL. The plate was covered with foil and mixed for 30 s on a plate shaker before incubation for 60 min. at 37° C. Relative fluorescence units were measured using a SpectraMx Gemini XS spectrofluorometer (Molecular Devices Corporation, Sunnyvale, Calif.) at an excitation wavelength for bis-ANS of 393 nm and an emission wavelength of 484 nm. The data were acquired using the SOFTmaxPRO software (Molecular Devices Corporation, Sunnyvale, Calif.).

The subject of the next assay is LNCaP cells. In words: Synergy with HSP90 inhibitors on cell growth by ATP level (isobologram). The following applies: 24 hr, low concentrations. The class given is cell-based.
Excerpt: as §1, §2

In assay [4] the target is T1, HSP90α. The experiment in a line: Geldanamycin competition assay (Cy3B-geldanamycin fluorescence polarization). Type of assay: binding. The following applies: celastrol and gedunin at concentrations up to ~100 μM. Also on record: purchased Stressgen SPP776 / SPP-776. The protocol: We first tested whether celastrol or gedunin could compete with Cy3B-geldanamycin for binding to the ATP-binding pocket of purified HSP90α by fluorescence polarization assay (Kim et al., 2004, Llauger-Bufi et al., 2003).
The geldanamycin competition assay was performed as described (He et al., 2006, Kim et al., 2004), except that Cy3B-geldanamycin rather than BODIPY-geldanamycin was used as described herein.
Measurements were taken in black 96-well microtiter plates (Coming #3650). The assay buffer (HFB) contained 20 mM HEPES (K) pH 7.3, 50 mM KCl, 5 mM MgCl2, 20 mM Na2MoO4, 0.01% NP40. Before each use, 0.1 mg/mL bovine gamma globulin (BGG) (Panvera Corporation, Madison, Wis.) and 2 mM DTT (Fisher Biotech, Fair Lawn, N.J.) were freshly added. GM-cy3B was synthesized as previously reported and was dissolved in DMSO to form 10 μM solutions. Cell lysates were prepared rupturing cellular membranes by freezing at −70° C. and dissolving the cellular extract in HFB with added protease and phosphotase inhibitors. Saturation curves were recorded in which GM-cy3B (3 nM) was treated with increasing amounts of cellular lysates.

The structures appear in SMILES notation. A value given as a limit tells only on which side of the number the result lay.

Regarding `CC1=C(O)C(=O)C=C2C1=CC=C1[C@@]2(C)CC[C@@]2(C)[C@@H]3C[C@](C)(C(=O)O)CC[C@]3(C)CC[C@]12C` [celastrol], in the assay on AR, the “concentration at and above which AR levels are decreased” value was at least 0.5 µM; the “concentration giving almost complete ablation of AR levels” value was 1 µM. Also, in assay [1], the “combined effect with geldanamycin and 17-AAG on the androgen signaling signature” value is recorded as “mild synergy”. Besides, the “effect on the GE-HTS androgen signaling signature outside the screen” value in [2] is listed as “inhibit the GE-HTS androgen signaling signature in a concentration-dependent manner”. For the same compound, the “inhibition of the androgen signaling signature in the GE-HTS screen (strong / weak)” value in [2] (~20 μM, 24 hr) is “strong inhibition”. For the same compound, the “protein level of EGFR” value with EGFR was “lowered the protein levels”. At HSP90α [3], the “ATP-binding activity of HSP90α” value was “inhibited the ATP-binding activity”. Moreover, in the assay with FLT3, the “protein level of FLT3” value was “lowered the protein levels”. The “inhibition of HSP90 conformational changes induced by bis-ANS” value in the assay on HSP90 is recorded as “binds purified HSP90 in vitro”. Moreover, in the assay on LNCaP cells, the “combined effect with geldanamycin and 17-AAG on cell growth (ATP level)” value is “synergistically inhibit cell growth”. The “competition with Cy3B-geldanamycin for binding to the ATP-binding pocket of HSP90α” value on HSP90α [4] is “Neither celastrol nor gedunin significantly competed”.
Take `CC(=O)O[C@@H]1C[C@H]2C(C)(C)C(=O)C=C[C@]2(C)[C@H]2CC[C@@]3(C)[C@H](c4ccoc4)OC(=O)[C@H]4O[C@]43[C@@]21C` [gedunin]: in the assay with AR, the “concentration at and above which AR levels are decreased” value is at least 10 µM; the “concentration giving almost complete ablation of AR levels” value was 20 µM. For the same compound, in the assay with AR (gedunin-treated LNCaP cells), the “AR protein by immunoblotting” value was “nearly entirely eliminated”. Also, in [1], the “combined effect with geldanamycin and 17-AAG on the androgen signaling signature” value was “mild synergy”. Also, the “effect on the GE-HTS androgen signaling signature outside the screen” value in [2] is listed as “inhibit the GE-HTS androgen signaling signature in a concentration-dependent manner”. For the same compound, in the assay on EGFR, the “protein level of EGFR” value is on record as “lowered the protein levels”. Also, the “ATP-binding activity of HSP90α” value on HSP90α [3] is “inhibited the ATP-binding activity”. Also, the “protein level of FLT3” value in the assay with FLT3 is “lowered the protein levels”. Moreover, the “sensitivity of FLT3 internal tandem duplication (ITD) mutant to inhibition” value in the assay on FLT3 (Ba/F3 cells, relative to non-mutant) is listed as “increased sensitivity”. Further, the “inhibition of HSP90 conformational changes induced by bis-ANS” value with HSP90 was “the effect is not well seen”. For the same compound, the “combined effect with geldanamycin and 17-AAG on cell growth (ATP level)” value in the assay with LNCaP cells is listed as “synergistically inhibit cell growth”. Moreover, at HSP90α [4], the “competition with Cy3B-geldanamycin for binding to the ATP-binding pocket of HSP90α” value is on record as “Neither celastrol nor gedunin significantly competed”.
